# Experimental data reported in article PMC5786788, “Antimicrobial Octapeptin C4 Analogues Active against Cryptococcus Species” (Antimicrobial Agents and Chemotherapy, 2018).
# Where a SMILES comes first, the peptide text is derived from it. Bridges are numbered along the chain shown (N, C = ends). [ ]: non-standard residue; d: D form. The star is where a group is joined. Decanoyl(3R-OH) = CCCCCCC[C@@H](O)CC(=O)*; dDab = NCC[C@@H](N)C(=O)O; Dab = NCC[C@H](N)C(=O)O
# Columns and labels:
# [1] = test system: C. neoformans var. grubii; assay: organism not typed; details: no visible growth
# Protocol: The MICs of the yeast strains for PMB, PME, and octapeptin C4 and its derivatives were determined in accordance with CLSI M27-A2 guidelines using YNB (Becton Dickinson, USA) medium supplemented with 10 mM ammonium sulfate and 2% glucose, a final inoculum concentration of 1.5 × 10^3 to 2.0 × 10^3 cells/ml, and incubation at 35°C for 72 h ([39]). […] The MICs for PMB, PME, and octapeptin C4 for A. fumigatus were determined in accordance with the CLSI M38-A2 guidelines ([40]) using synthetic RPMI 1640 medium (with glutamine, without bicarbonate and with phenol red; Life Technologies, USA). The final inoculum concentration was 0.4 × 10^4 to 5 × 10^4 cells/ml, with incubation at 35°C for 48 h. […] All assays were completed in triplicate. Fluconazole was used as a positive control where the MIC was determined at both 50% growth (in accordance with CLSI M27-A2 guidelines) and when there was a “no visible growth” reading. […]
# [2] = test system: C. neoformans var. gattii; assay: organism not typed; details: no visible growth
# Protocol: (§1) The MICs of the yeast strains for PMB, PME, and octapeptin C4 and its derivatives were determined in accordance with CLSI M27-A2 guidelines using YNB (Becton Dickinson, USA) medium supplemented with 10 mM ammonium sulfate and 2% glucose, a final inoculum concentration of 1.5 × 10^3 to 2.0 × 10^3 cells/ml, and incubation at 35°C for 72 h ([39]). […] The MICs for PMB, PME, and octapeptin C4 for A. fumigatus were determined in accordance with the CLSI M38-A2 guidelines ([40]) using synthetic RPMI 1640 medium (with glutamine, without bicarbonate and with phenol red; Life Technologies, USA). The final inoculum concentration was 0.4 × 10^4 to 5 × 10^4 cells/ml, with incubation at 35°C for 48 h. […] All assays were completed in triplicate. Fluconazole was used as a positive control where the MIC was determined at both 50% growth (in accordance with CLSI M27-A2 guidelines) and when there was a “no visible growth” reading.
# [3] = test system: C. neoformans var. neoformans; assay: microbe, parasite or virus in culture; details: no visible growth
# Protocol: as §1
# [4] = test system: melanized and nonmelanized C. neoformans cells; assay: In vitro time course assay of melanization effect; assay type: cell-based, Cryptococcus neoformans; details: melanin induced on L-DOPA agar vs suppressed on YPD agar; PMB at 12.5 μM, octapeptin C4 at 1.56 μM; 0-8 h; two replicates
# Protocol: (A) Melanin suppressed C. neoformans. (B) Melanin induced C. neoformans. […] Samples from each flask were taken 0, 1, 2, 4, 6, and 8 h after inoculation, spread onto a YPD plate, and incubated at 30°C for 3 days, at which time the colonies were counted. The data represent the means of two replicates, and the error bars represent the SEM.
# Melanization was induced by growth on L-DOPA agar medium at 30°C and suppressed by growth on YPD agar medium at 30°C. Cells were grown over 3 days and collected, washed twice in PBS, and then resuspended in PBS at a density of 1,500 to 2,000 cells/ml. Aliquots of the cells were treated with PMB sulfate, octapeptin C4, and the octapeptin C4 derivatives P1L, P1D, P4, P3, P4L, P4D, P5, P6, P7, and P8 at the determined MICs. At 0, 1, 2, 4, 6, and 8 h after inoculation, samples of the suspension were spread onto YPD agar and incubated at 30°C for 3 days, and the colonies were counted. The assay was repeated in duplicate, and paired sample t tests were performed in GraphPad Prism v7.0.
# human kidney-2 cell line = details: cited from earlier work
smiles,measurement,setting,value
"CCCCCCC[C@@H](O)CC(=O)N[C@H](CCN)C(=O)N[C@H]1CCNC(=O)[C@H](CC(C)C)NC(=O)[C@H](CCN)NC(=O)[C@H](CCN)NC(=O)[C@H](CC(C)C)NC(=O)[C@@H](Cc2ccccc2)NC(=O)[C@H](CCN)NC1=O [Octapeptin C4, octapeptin C4] ({Decanoyl(3R-OH)}-[dDab][Dab][Dab][dF]L[Dab][Dab]L; lactam 2-C (inferred); N-terminus assumed)",MIC,[1]; strain 486 (USA),3.13 µg/mL
same,MIC,"[1]; strain 488 (AIDS+, pre-HAART USA)",1.56 µg/mL
same,MIC,[1]; strain 490 (USA),1.56 µg/mL
same,MIC,[1]; strain 496 (USA),1.56 µg/mL
same,MIC,[1]; strain 500 (USA),1.56 µg/mL
same,MIC,[1]; strain 502 (ARR3+ USA),3.13 µg/mL
same,MIC,[1]; strain 505 (India),1.56 µg/mL
same,MIC,[1]; strain 507 (India),1.56 µg/mL
same,MIC,[1]; strain 512 (India),3.13 µg/mL
same,MIC,[1]; strain 516 (India),3.13 µg/mL
same,MIC,[1]; strain 518 (VNI India),1.56 µg/mL
same,MIC,[1]; strain 522 (India),3.13 µg/mL
same,MIC,[1]; strain 525 (India),1.56 µg/mL
same,MIC,[1]; strain 1188 (Japan lung),3.13 µg/mL
same,MIC,[1]; strain 1189 (USA BAL/HIV),1.56 µg/mL
same,MIC,[1]; strain 1194 (Italy),1.56 µg/mL
same,MIC,[1]; strain 1196 (Botswana CSF/AIDS),3.13 µg/mL
same,MIC,[1]; strain 1197 (Botswana CSF/AIDS),3.13 µg/mL
same,MIC,[1]; strain 1199 (Uganda CSF/HIV+ VNII),1.56 µg/mL
same,MIC,[1]; strain H99O (lab strain),1.56 µg/mL
same,MIC,[2]; strain ATCC 24066 (NIH 18),1.56 µg/mL
same,MIC,[2]; strain ATCC 32269,3.13 µg/mL
same,MIC,[2]; strain ATCC 32608 (NIH 191),0.78 µg/mL
same,MIC,[2]; strain ATCC 32609 (NIH444),3.13 µg/mL
same,MIC,[2]; strain ATCC 34878,3.13 µg/mL
same,MIC,[2]; strain ATCC 34882,6.25 µg/mL
same,MIC,[2]; strain B5748 (VGIV HIV India),3.13 µg/mL
same,MIC,[2]; strain R266 (Vancouver Island),1.56 µg/mL
same,MIC,[2]; strain R267 (Vancouver Island),12.50 µg/mL
same,MIC,[2]; strain R268 (Vancouver Island),3.13 µg/mL
same,MIC,[2]; strain R269 (Vancouver Island),3.13 µg/mL
same,MIC,[2]; strain R270 (Vancouver Island),3.13 µg/mL
same,MIC,[3]; strain WM 01.127 (USA),1.56 µg/mL
same,MIC,[3]; strain WM 02.141 (Russia),3.13 µg/mL
same,MIC,[3]; strain WM 02.142 (Russia),1.56 µg/mL
same,MIC,[3]; strain WM 02.143 (Russia),3.13 µg/mL
same,MIC,[3]; strain WM 02.37 (Canada),1.56 µg/mL
same,MIC,[3]; strain WM 02.52 (Canada),1.56 µg/mL
same,MIC,[3]; strain WM 04.168 (Chile),1.56 µg/mL
same,MIC,"[3]; strain WM 04.171 (Thailand, environmental)",1.56 µg/mL
same,MIC,"[3]; strain WM 05.467 (Brazil, environmental)",1.56 µg/mL
same,MIC,[3]; strain WM 05.515 (Peru),1.56 µg/mL
same,MIC,"[3]; strain WM 09.109 (Italy, environmental)",1.56 µg/mL
same,MIC,[3]; strain WM 09.112 (USA),1.56 µg/mL
same,MIC,[3]; strain WM 10.119 (Australia),1.56 µg/mL
same,MIC,[3]; strain WM 629 (Australia),3.13 µg/mL
same,MIC,[3]; strain WM 1706 (Argentina),1.56 µg/mL
same,MIC,[3]; strain WM 1740 (Chile),3.13 µg/mL
same,MIC,"[3]; strain WM 2207 (USA, environmental)",1.56 µg/mL
same,MIC,[3]; strain WM 2242 (USA),1.56 µg/mL
same,MIC,[3]; strain WM 2530 (USA),3.13 µg/mL
same,effect of melanization on fungicidal activity,[4],slightly enhanced
same,50% cytotoxic concentration,human kidney-2 cell line,31 µM
